# Measurements reported in patent publication US11434468B2, “Lactic acid bacteria and its applications” (Bened Biomedical Co., Ltd., priority 2017, dated 2022).
# Tests used:
# [1] = test system: rats subjected to chronic mild stress; test: Elevated plus maze after 4 weeks of chronic mild stress protocol; type: in vivo, rat; settings: 4 weeks chronic mild stress, daily oral gavage (PS150 1×10^9 cfu; protein 300 mg/kg; alprazolam), 5 min, comparison between groups
# Source text: The elevated plus maze (EPM) consists of four arms, two open arms without walls and two enclosed walls of 40 cm high, 50 cm long and 15 cm wide. Each arm of the maze is attached with firm metallic legs with 70 cm high. The EPM was placed in a room with bright lighting, close to the center of the room. The levels of illumination of both open and closed arms were maintained similar. A video camera was set up above the elevated plus maze to capture and record the animal's behavior.
# Animal was taken out from its cage and placed at the middle (ie. the junction of the open and closed arm) of EPM, facing away from the maze towards the wall. Each animal was given 5 minutes to explore freely on the EPM. Throughout the assessment, the EPM was cleaned and dried with 70% ethanol before accessing the next animal. The number of open arm entries and time spent in open arms were observed, timed and recorded. The number of entries to open arms and the duration spent on open arms were recorded and expressed as mean±standard of means from six replicates (n=6) per group.
# Analyses on rat behavior were carried out after 4 weeks of chronic mild stress protocol. […] Rats were placed at the junction of the four arms of the maze, facing an open arm, and entries/duration in each arm was recorded for 5 min. […]
# [2] = test system: rats subjected to chronic mild stress; test: Open field test after 4 weeks of chronic mild stress protocol; type: in vivo, rat; settings: 4 weeks chronic mild stress, daily oral gavage, 5 min open field test
# Description: Open field test was performed using an opaque rectangular box with the dimension of 32 cm high, 38 cm width and 52 cm long was placed in the center of the experiment room supplied with bright lighting. A video camera was set up above the rectangular box to capture the behavior of the animals.
# Each animal was gently transferred from its cage into the OFT and allowed to freely explore inside the box. […] The box was cleaned with 70% ethanol during the interval of each test throughout the assessment. The duration of exploratory and immobility was expressed as mean±standard of mean from six replicates (n=6) per group.
# The open field test is broadly used to assess exploratory behavior and validated for use in the measurement of anxiety-related behaviors. The procedure consists of subjecting the rat, to an unknown environment from which escape is prevented by surrounding walls. […] Increased exploratory behaviours in rats indicate less anxiety states, whereas immobility indicate anxiety behaviour in rats.
# [3] = test system: rats subjected to chronic mild stress; test: Forced swim test after 4 weeks of chronic mild stress protocol; type: in vivo, rat; settings: 4 weeks chronic mild stress, daily oral gavage, 5 min forced swim test, comparison between groups, P<0.05, FIG. 3
# Description: Forced swim test (FST) was performed in a black opaque swim cylinder with a depth of 68 cm and diameter of 40 cm. The cylinder was filled up with water to the depth of 30 cm, leaving some space on top to prevent the escape of rat. A video camera was set up above the swim cylinder to capture and record the animals' behavior during the test.
# Each animal was gently placed into the water in the swim cylinder and was given 5 minutes to swim freely in the swim cylinder. The behavior of the animals were observed and recorded throughout the test. All rats were dried thoroughly with clean towel after the FST before returning them to their respective cage throughout the assessment. The duration of immobility of the rats were timed and then expressed as mean±standard of mean from six replicates (n=6) per group.
# Forced swim test is one of the most commonly used assays for the study of depressive-like behavior in rodents. […] In forced swim test, a swimming cylinder filled with 30 cm depth of water. Depression assessment of rats was performed by scoring predominant behavior in each 5-s period of the 300-s test.
# [4] = test system: rats subjected to chronic mild stress; test: Morris water maze after chronic mild stress; type: in vivo, rat; settings: 4 weeks chronic mild stress, daily oral gavage, comparison between groups, P<0.05, FIG. 6(a)
# Description: The diameter of the MWM used was 210 cm, where the height of the pool was 51 cm with non-reflective interior surfaces. The maze was placed in a room with a video camera set up on top of the maze to capture and record the animal's behavior. The water maze was filled up with water of temperature ranging within 19-22° C. to avoid the rats from getting temperature shock (hypothermia or hyperthermia). Then, a colorless and transparent circular goal or platform (designated as escape platform) with the diameter of 10-12 cm was submerged 1-2 cm below the water surface and ensured with stability to avoid tipping of animal when the rats climb on it.
# The start locations of the MWM was designated at East, West and South East, while the escape platform is submerge at North East. A consecutive four daily trials were performed using these three start locations. Briefly, the animals were gently placed on the first start locations and allowed to swim freely to search for the escape platform. A maximum of two minutes was given for each animal to perform the search for the escape platform. All rats were dried thoroughly with clean towel after the Morris test before returning them to their respective cage. Time taken by each animal to locate the escape, escape latency (seconds) is expressed as mean±standard of mean from six replicates (n=6) per group. […]
# [5] = test system: SH-SY5Y neuroblastoma cells; test: Cell viability (MTT) upon dexamethasone-induced neurotoxicity; type: cell-based, human; settings: dexamethasone 25 μM, MTT 48 h after treatment, unfermented MRS control = 100% viability, FIG. 11
# Description: Neuroblastoma cell line, SH-SY5Y cells were purchased from Korea Cell Line Bank (KCLB; Seoul, Korea). Cells were maintained in high glucose Dulbecco's Modified Eagle Medium (DMEM; Difco, Detroit, Mich., USA) supplemented with 10% heat-inactivated fetal bovine serum (FBS; Gibco Life Technologies Inc, Grand Island, N.Y., USA), 100 U/mL penicillin/streptomycin (Gibco Life Technologies Inc, Grand Island, N.Y., USA). Cultures were seeded into flasks containing supplemented medium and maintained at 37° C. in a humidified atmosphere of 5% CO2 and 95% air.
# The SH-SY5Y cells were seeded into 96-well culture plates at a seeding density 1×10^5 cells per well. All cells in this study were maintained in 10% serum medium until the dexamethasone (Dex; Sigma-Aldrich, Steinheim, Germany) treatment. Cells were incubated for 24 h to allow attachment to the culture plate before treatment. […] The 3-(4, 5 dimethylthiazol-2-yl)-2,5-diphenyl-tetrazolium bromide (MTT; Sigma-Aldrich, Steinheim, Germany) reduction was analyzed 48 h after treatment.
# Cell viability was measured by quantitative colorimetric assay with MTT, as described previously by Denizot and Lang (J Immunol Methods. 1986 May 22; 89(2):271-7.). […] Colorimetric determination of MTT reduction was measured at 570 nm using microplate reader (Thermo Scientific, Waltham, Mass., US). […]
Molecule,"Number of entries into the open arms ([1]; P<0.05, FIG. 1(a))","Ratio of time spent on the closed arms to the time spent on the open arms ([1]; P<0.05, FIG. 1(b))","Duration of immobility ([2]; between naïve control, positive control, PS150 and protein fraction groups, FIG. 2)","Duration of exploratory activity ([2]; comparison between groups, P<0.05, FIG. 2)",Time spent immobile [3],Escape latency [4],Neuroprotective effect (cell viability) against dexamethasone [5]
Cc1nnc2n1-c1ccc(Cl)cc1C(c1ccccc1)=NC2 [alprazolam],insignificant differences,insignificant differences,insignificantly different,insignificantly different,insignificantly different,Insignificant difference,
"fraction A: HPLC-purified fraction of the PS150 protein fraction, approximately 55 kDa, identified as elongation factor Tu (SEQ ID NO:4)",,,,,,,most prevalent neuroprotective effect
